Test results taken from ChEMBL document CHEMBL3351322, “Study the interactions between human serum albumin and two antifungal drugs: fluconazole and its analogue DTP” (Bioorg Med Chem Lett, 2014).

Legend:
Format in all cases: ADME
Albumin [1] = molecular target: T1, Albumin (Homo sapiens, UniProt P02768); assay: Binding affinity to human serum albumin at 0.4 to 5.6 x 10' -5 M by UV-Vis spectroscopy; settings: isolated protein
Albumin [2] = molecular target: T1, Albumin; assay: Ratio of binding constant for human serum albumin in presence of Zn2+ to binding constant for human serum albumin in absence of metal ions
Albumin [3] = molecular target: T1, Albumin; assay: Ratio of binding constant for human serum albumin in presence of Ba2+ to binding constant for human serum albumin in absence of metal ions
Albumin [4] = molecular target: T1, Albumin; assay: Ratio of binding constant for human serum albumin in presence of Cr3+ to binding constant for human serum albumin in absence of metal ions
Albumin [5] = molecular target: T1, Albumin; assay: Ratio of binding constant for human serum albumin in presence of Ni2+ to binding constant for human serum albumin in absence of metal ions
Albumin [6] = molecular target: T1, Albumin; assay: Ratio of binding constant for human serum albumin in presence of Mg2+ to binding constant for human serum albumin in absence of metal ions
Albumin [7] = molecular target: T1, Albumin; assay: Ratio of binding constant for human serum albumin in presence of Fe3+ to binding constant for human serum albumin in absence of metal ions
Albumin [8] = molecular target: T1, Albumin; assay: Ratio of binding constant for human serum albumin in presence of Cu2+ to binding constant for human serum albumin in absence of metal ions
Albumin [9] = molecular target: T1, Albumin; assay: Ratio of binding constant for human serum albumin in presence of Co2+ to binding constant for human serum albumin in absence of metal ions
Albumin [10] = molecular target: T1, Albumin; assay: Ratio of binding constant for human serum albumin in presence of La3+ to binding constant for human serum albumin in absence of metal ions
Albumin [11] = molecular target: T1, Albumin; assay: Ratio of binding constant for human serum albumin in presence of Mn2+ to binding constant for human serum albumin in absence of metal ions

T1 sequence (P02768 whole entry): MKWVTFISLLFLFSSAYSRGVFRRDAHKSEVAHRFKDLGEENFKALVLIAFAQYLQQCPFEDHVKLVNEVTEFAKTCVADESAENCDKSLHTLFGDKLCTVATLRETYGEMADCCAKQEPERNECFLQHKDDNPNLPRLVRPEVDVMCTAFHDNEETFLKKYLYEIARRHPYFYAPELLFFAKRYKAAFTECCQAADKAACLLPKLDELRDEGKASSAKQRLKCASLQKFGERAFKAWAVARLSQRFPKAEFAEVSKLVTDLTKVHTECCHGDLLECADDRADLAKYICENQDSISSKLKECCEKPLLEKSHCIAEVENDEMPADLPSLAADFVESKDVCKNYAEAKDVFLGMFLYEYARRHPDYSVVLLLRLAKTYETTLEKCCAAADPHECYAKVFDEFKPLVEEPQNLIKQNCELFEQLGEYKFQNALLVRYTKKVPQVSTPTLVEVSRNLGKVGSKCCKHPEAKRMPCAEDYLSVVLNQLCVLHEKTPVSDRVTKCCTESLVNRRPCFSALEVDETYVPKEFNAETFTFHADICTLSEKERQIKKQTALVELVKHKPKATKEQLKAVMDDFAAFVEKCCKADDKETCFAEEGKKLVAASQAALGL

OC(Cn1cncn1)(Cn1cncn1)c1ccc(Cl)cc1Cl
Activity (Albumin [1]): Active

OC(Cn1cncn1)(Cn1cncn1)c1ccc(F)cc1F [FLUCONAZOLE]
Activity (Albumin [1]): Active
Ratio (Albumin [2]): 1.11
Ratio (Albumin [3]): 0.956
Ratio (Albumin [4]): 0.866
Ratio (Albumin [5]): 0.857
Ratio (Albumin [6]): 1.081
Ratio (Albumin [7]): 0.741
Ratio (Albumin [8]): 0.961
Ratio (Albumin [9]): 0.945
Ratio (Albumin [10]): 0.905
Ratio (Albumin [11]): 0.868
